Experimental findings from PubChem BioAssay AID342 (DTP/NCI, 2004) are described below.

The subject of this assay is Swiss mice, Sarcoma 180 sc, mean tumor weight T/C. As to the kind of experiment: NCI In Vivo Anticancer Drug Screen. Data for tumor model Sarcoma 180 (subcutaneous) in Swiss mice. The settings on record: endpoint: mean tumor weight, higher = larger tumour. The method, boiled down:
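Mice bearing transplanted tumors were treated with compound, and survival or tumor size was measured. Values are expressed as the treated-group measurement (T) divided by the vehicle-treated control measurement (C).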

“And” between values parts separate entries of the source, which are not always exact repeats. Equal values may be shown once.

For the compound `CC(=O)OCC(=O)[C@@]1(O)CC[C@H]2[C@@H]3CCC4=CC(=O)C=C[C@]4(C)[C@@]3(F)[C@@H](O)C[C@@]21C`, the T/C by setting is: (dose: 20.0 mg/kg/injection, schedule: Q#A X014 (sc), vehicle: steriod suspending solution) 32 % of control; (dose: 30.0 mg/kg/injection, schedule: Q#A X014 (sc), vehicle: steriod suspending solution) 32 % of control; (dose: 45.0 mg/kg/injection, schedule: Q#A X014 (sc), vehicle: steriod suspending solution) 30 % of control; (dose: 67.5 mg/kg/injection, schedule: Q#A X014 (sc), vehicle: steriod suspending solution) 24 % of control and 32 % of control.
For `CCCCOP(=S)(N1CC1)N1CC1`, the T/C was 97 % of control (dose: 0.25 mg/kg/injection, schedule: Q01DX007 (ip), vehicle: saline); 73 % of control (dose: 0.5 mg/kg/injection, schedule: Q01DX007 (ip), vehicle: saline); 124 % of control (dose: 0.75 mg/kg/injection, schedule: Q01DX007 (ip), vehicle: other); 86 % of control (dose: 0.75 mg/kg/injection, schedule: Q01DX007 (ip), vehicle: saline); 70 % of control (dose: 1.0 mg/kg/injection, schedule: Q01DX007 (ip), vehicle: saline); 79 % of control (dose: 1.5 mg/kg/injection, schedule: Q01DX007 (ip), vehicle: other). The T/C was 70 % of control (dose: 1.5 mg/kg/injection, schedule: Q01DX007 (ip), vehicle: saline); 33 % of control (dose: 1.8 mg/kg/injection, schedule: Q01DX007 (ip), vehicle: saline); 9 % of control (dose: 2.8 mg/kg/injection, schedule: Q01DX007 (ip), vehicle: saline); 87 % of control (dose: 3.0 mg/kg/injection, schedule: Q01DX007 (ip), vehicle: other); 57 % of control (dose: 3.0 mg/kg/injection, schedule: Q01DX007 (ip), vehicle: saline); 11 % of control (dose: 4.3 mg/kg/injection, schedule: Q01DX007 (ip), vehicle: saline). Further, the T/C reads like this: (dose: 6.0 mg/kg/injection, schedule: Q01DX007 (ip), vehicle: other) 91 % of control; (dose: 6.0 mg/kg/injection, schedule: Q01DX007 (ip), vehicle: saline) 31 % of control; (dose: 6.6 mg/kg/injection, schedule: Q01DX007 (ip), vehicle: saline) 3 % of control; (dose: 7.5 mg/kg/injection, schedule: Q#A X014 (ip), vehicle: saline) 28 % of control; (dose: 10.0 mg/kg/injection, schedule: Q01DX007 (ip), vehicle: other) 103 % of control; (dose: 10.0 mg/kg/injection, schedule: Q01DX007 (ip), vehicle: saline) 17 % of control. Further, the T/C was 17 % of control (dose: 10.0 mg/kg/injection, schedule: Q## X000 (ip), vehicle: saline); 2 % of control (dose: 15.0 mg/kg/injection, schedule: Q## X000 (ip), vehicle: saline); 3 % of control (dose: 22.5 mg/kg/injection, schedule: Q## X000 (ip), vehicle: saline).
Take `O=[N+]([O-])c1ccc(O)c([N+](=O)[O-])c1`: the T/C reads like this: (dose: 1325.0 micrograms/kg/injection, schedule: Q01DX007 (ip), vehicle: carboxymethylcellulose (CMC)) 69 % of control; (dose: 2650.0 micrograms/kg/injection, schedule: Q01DX007 (ip), vehicle: carboxymethylcellulose (CMC)) 96 % of control; (dose: 4300.0 micrograms/kg/injection, schedule: Q01DX007 (ip), vehicle: carboxymethylcellulose (CMC)) 71 % of control; (dose: 6625.0 micrograms/kg/injection, schedule: Q01DX007 (ip), vehicle: carboxymethylcellulose (CMC)) 79 % of control.
In the case of `CC#CC(C)(O)CC` (stereo not drawn), the T/C by setting is: (dose: 77.0 mg/kg/injection, schedule: Q#A X014 (ip), vehicle: methylcellulose (MC)) 79 % of control; (dose: 115.5 mg/kg/injection, schedule: Q#A X014 (ip), vehicle: methylcellulose (MC)) 75 % of control; (dose: 175.0 mg/kg/injection, schedule: Q#A X014 (ip), vehicle: methylcellulose (MC)) 51 % of control; (dose: 212.5 mg/kg/injection, schedule: Q#A X014 (ip), vehicle: methylcellulose (MC)) 44 % of control.
In the case of `C[C@]12C=CC(=O)C=C1[C@@H](F)C[C@@H]1[C@@H]2[C@@H](O)C[C@@]2(C)[C@H]1CC[C@]2(O)C(=O)CO`, the T/C runs as follows: (dose: 3.5 mg/kg/injection, schedule: Q#A X014 (sc), vehicle: steriod suspending solution) 85 % of control; (dose: 7.0 mg/kg/injection, schedule: Q#A X014 (sc), vehicle: steriod suspending solution) 98 % of control; (dose: 10.0 mg/kg/injection, schedule: Q#A X014 (sc), vehicle: steriod suspending solution) 76 % of control; (dose: 15.5 mg/kg/injection, schedule: Q#A X014 (sc), vehicle: steriod suspending solution) 72 % of control; (dose: 22.5 mg/kg/injection, schedule: Q#A X014 (sc), vehicle: steriod suspending solution) 67 % of control.
Regarding `O=S(=O)(O)C(Nc1ccccc1)c1ccccc1` (stereo not drawn), the T/C is 80 % of control (dose: 24.0 mg/kg/injection, schedule: Q01DX007 (ip), vehicle: carboxymethylcellulose (CMC)); 94 % of control (dose: 36.0 mg/kg/injection, schedule: Q01DX007 (ip), vehicle: carboxymethylcellulose (CMC)); 92 % of control (dose: 54.0 mg/kg/injection, schedule: Q01DX007 (ip), vehicle: carboxymethylcellulose (CMC)); 93 % of control (dose: 81.0 mg/kg/injection, schedule: Q01DX007 (ip), vehicle: carboxymethylcellulose (CMC)); 113 % of control (dose: 162.0 mg/kg/injection, schedule: Q01DX007 (ip), vehicle: carboxymethylcellulose (CMC)); 84 % of control (dose: 324.0 mg/kg/injection, schedule: Q01DX007 (ip), vehicle: carboxymethylcellulose (CMC)).
Turning to `COC(=O)CC(C(=O)C=[N+]=[N-])N1C(=O)c2ccccc2C1=O` (stereo not drawn), the T/C reads like this: (dose: 0.03 mg/kg/injection, schedule: Q01DX007 (ip), vehicle: carboxymethylcellulose (CMC)) 112 % of control; (dose: 0.05 mg/kg/injection, schedule: Q01DX007 (ip), vehicle: carboxymethylcellulose (CMC)) 89 % of control; (dose: 0.1 mg/kg/injection, schedule: Q01DX007 (ip), vehicle: carboxymethylcellulose (CMC)) 101 % of control; (dose: 0.2 mg/kg/injection, schedule: Q01DX007 (ip), vehicle: carboxymethylcellulose (CMC)) 95 % of control and 102 % of control; (dose: 0.4 mg/kg/injection, schedule: Q01DX007 (ip), vehicle: carboxymethylcellulose (CMC)) 115 % of control; (dose: 0.8 mg/kg/injection, schedule: Q01DX007 (ip), vehicle: carboxymethylcellulose (CMC)) 88 % of control and 91 % of control. Also, the T/C by setting is: (dose: 3.2 mg/kg/injection, schedule: Q01DX007 (ip), vehicle: carboxymethylcellulose (CMC)) 99 % of control; (dose: 6.4 mg/kg/injection, schedule: Q01DX007 (ip), vehicle: carboxymethylcellulose (CMC)) 70 % of control and 83 % of control; (dose: 12.8 mg/kg/injection, schedule: Q01DX007 (ip), vehicle: carboxymethylcellulose (CMC)) 87 % of control; (dose: 25.6 mg/kg/injection, schedule: Q01DX007 (ip), vehicle: carboxymethylcellulose (CMC)) 84 % of control.
In the case of `COc1ccc(-c2cc(=O)c3c(O)cc(OC)cc3o2)cc1`, the T/C was 76 % of control (dose: 220.0 mg/kg/injection, schedule: Q01DX007 (ip), vehicle: saline); 66 % of control (dose: 330.0 mg/kg/injection, schedule: Q01DX007 (ip), vehicle: saline); 81 % of control (dose: 500.0 mg/kg/injection, schedule: Q01DX007 (ip), vehicle: saline).
For `CC(=O)OC/N=[N+](/C)[O-]`, the T/C by setting is: (dose: 4.68 mg/kg/injection, schedule: Q01DX007 (ip), vehicle: saline) 84 % of control; (dose: 9.37 mg/kg/injection, schedule: Q01DX007 (ip), vehicle: saline) 54 % of control.
Take `CC(=O)OCC(=O)[C@@]1(O)CC[C@H]2[C@@H]3CCC4=CC(=O)C=C[C@]4(C)[C@H]3[C@@H](O)C[C@@]21C`: the T/C (dose: 13.3 mg/kg/injection, schedule: Q01DX007 (sc), vehicle: steriod suspending solution) is 73 % of control; the T/C (dose: 20.0 mg/kg/injection, schedule: Q01DX007 (sc), vehicle: steriod suspending solution) was 62 % of control; the T/C (dose: 30.0 mg/kg/injection, schedule: Q01DX007 (sc), vehicle: steriod suspending solution) is 51 % of control; the T/C (dose: 45.0 mg/kg/injection, schedule: Q01DX007 (sc), vehicle: steriod suspending solution) is 23 % of control.

The term T/C denotes the ratio of treated to control.
